Experimental data: PubChem BioAssay AID1013 (Columbia University Molecular Screening Center, 2008)
The source made the active and inactive calls. The rule behind the calls is not given here.

experiment: blockers of VCAM1 upregulation by TNFa – imaging, TNFa stimulus, retest and dose response, confirmation (AID 1013); conditions: TNFa-stimulated cells, VCAM1 expression imaging; at 2 µM; stronger effect = higher value;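 for cell count: compound on cells 1 h before TNFa then 24 h more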

Compound | inhibition
COc1cc(CC(=O)Nc2ncc(C)s2)cc(OC)c1OC | -6.6% (inactive)
O=C(NC(Cc1c[nH]c2ccccc12)C(=O)O)c1ccco1 (centres undefined) | -11.2% (inactive)
O=C1N2CCSC2=NC1(Nc1ccccn1)C(F)(F)F (centres undefined) | 5.4% (inactive)
O=C1CC(N2CCN(Cc3ccc4c(c3)OCO4)CC2)C(=O)N1c1ccccc1 (centres undefined) | -11.2% (inactive)
COc1ccc(C(c2sc3ncnn3c2O)N2CC(C)OC(C)C2)cc1OC (centres undefined) | 14.8% (inactive)
CCN1CCN(Cc2c(C)[nH]c3ccc(C(=O)OC)cc3c2=O)CC1 | 8.5% (inactive)
CCC1=NC(c2ccccc2Cl)N(O)C1(C)C (centres undefined) | 5.5% (inactive)
CN1C(=O)C2(NCCc3c2[nH]c2ccccc32)c2ccccc21 (centres undefined) | -19.9% (inactive)
COc1ccc(CN2CCCCC2C(=O)Nc2ccc(OC)c(OCC(C)C)c2)cc1OC (centres undefined) | -5.8% (inactive)
CCOC(=O)Cc1cc(-c2ccc(O)cc2)nc2ccc3ccccc3c12 | 35.9% (inactive)
O=C(CS(=O)c1ccc(C(F)(F)F)cc1[N+](=O)[O-])Oc1ccccc1 (centres undefined) | 56.9% (inactive)
CC(=O)c1cccc(NC(=O)c2cc(-c3ccc(F)cc3)on2)c1 | -10.4% (inactive)
Cn1c(SCC(=O)NC2CCCCC2)nnc1-c1cccc(N)c1 | 4.3% (inactive)
N/C(Cc1cccs1)=N\OC(=O)COc1ccc(Br)cc1Cl | 8.2% (inactive)
CN1CCc2nc3sc(C#N)c(N)c3c(-c3cccs3)c2C1 | -13.9% (inactive)
O=C1CC(c2cc(Br)ccc2F)c2cc3c(cc2N1)CCC3 (centres undefined) | 24.3% (inactive)
CCOc1cc(NC(=O)c2ccco2)c(OCC)cc1NC(=O)CCC(=O)NCc1cccnc1 | 3.7% (inactive)
O=C(Oc1ccc2ccc(=O)oc2c1)N1CCOCC1 | 1.4% (inactive)
CCOC(=O)/C(=C\c1cccnc1)C(=O)c1cc(C(C)=O)c(Nc2ccccc2)s1 | 19.8% (inactive)
COc1cc(/C=N/NC(=O)Nc2ccccc2)ccc1OCCOc1ccccc1C | 33.1% (inactive)
CCOC(=O)c1ccc(NC(=O)CCNc2c(N3CCCC3)c(=O)c2=O)cc1 | -10.3% (inactive)
O=c1c2ccccc2nnn1CSc1ncnc2ccccc12 | 15.2% (inactive)
COc1ccc2c(c1)CCc1c(C(=O)N3CC4(C)CC3CC(C)(C)C4)noc1-2 (centres undefined) | -14.4% (inactive)
O=C(/C(=C/c1ccc(Cl)cc1)c1nc2ccccc2[nH]1)c1cccs1 | 32.1% (inactive)
CCCc1sc(N/N=C/c2ccccn2)nc1-c1ccc(Br)cc1 | 7.8% (inactive)

Compound | inhibition
CC(CCc1ccccc1)NC(=O)c1ccc(Br)o1 (centres undefined) | -4.5% (inactive)
O=C(CN1CCC(c2nc3ccccc3s2)CC1)NCc1cccs1 | -3.1% (inactive)
COc1ccc(S(=O)(=O)Nc2nc3n(n2)C(c2ccc(Cl)cc2)CC(=O)N3)cc1 (centres undefined) | -17.4% (inactive)
Cc1cccc(N=C2NC(=O)CS2)c1C | -7.6% (inactive)
COC(=O)Sc1nc(N2CCOCC2)c2c(c1C#N)CC(C)(C)OC2 | -5.9% (inactive)
CCCCOCCCNC(=O)c1cccs1 | -15.4% (inactive)
O=C(COC(=O)C1(c2ccccc2F)CCCC1)NC1CCS(=O)(=O)C1 (centres undefined) | -6.3% (inactive)
CC/C(=N\NC(=O)CNC(=O)/C=C/c1ccco1)c1ccccc1 | -3.4% (inactive)
Cc1ccc(S(=O)(=O)Nc2cc(C(=O)NCCN3CCCC3)ccc2N2CCCCC2)cc1 | -2.2% (inactive)
C=CC(=O)Nc1ccc(Br)cc1 | -8.4% (inactive)
O=C1C2CCCN2C(c2cccnc2)N1c1ccc(Cl)c(Cl)c1 (centres undefined) | -2.6% (inactive)
CCn1c(CN2CCN(c3ccc(Cl)cc3)CC2)nc2ccccc21 | 23.2% (inactive)
Cn1cc([N+](=O)[O-])c(C(=O)Nc2ccc3c(c2)OCCO3)n1 | 10.7% (inactive)
COC(=O)c1ccc(-n2nnnc2SCC(=O)N2CCCCC2)cc1 | 0.2% (inactive)
O=C(CS(=O)(=O)c1cn(Cc2cccc(F)c2)c2ccccc12)N1CCCCC1 | -4.4% (inactive)
Cn1c(CNc2ccccc2O)nc2ccccc21 | 11.9% (inactive)
CCCOC(=O)C1C2C=C[C@]3(CN(CCc4ccccc4)C(=O)[C@H]13)O2 (some centres undefined) | 4.5% (inactive)
CC(Sc1nc(N)cc(=O)[nH]1)C(=O)NC1CCCCC1 (centres undefined) | -7.6% (inactive)
CCOC(=O)N1CCN(C(=O)c2ccc3c(c2)NC(=O)C(N2CCOCC2)S3)CC1 (centres undefined) | 2.1% (inactive)
COc1ccc(CC(=O)OCc2cc3ccc(C)cc3[nH]c2=O)cc1 | 6.4% (inactive)
O=S(=O)(c1cccs1)N1CCN(CC(O)COc2cccc(Br)c2)CC1 (centres undefined) | 4.8% (inactive)
N=C1C(c2nc3ccccc3s2)=C(O)CN1Cc1ccco1 | -3% (inactive)
Cc1n[nH]c(=O)nc1NCc1ccccc1 | -9.9% (inactive)
O=C(Cc1ccc(-n2cccc2)cc1)NC1CCCCCC1 | 5.8% (inactive)
C/C(=N\Nc1nc2c(s1)CCCC2)c1ccccc1 | 3.8% (inactive)

Compound | inhibition
Cc1cc(NC(=O)C2C3C=CC(C3)C2C(=O)O)no1 (centres undefined) | -1.8% (inactive)
O=C1CC(N2CCN(Cc3ccc4c(c3)OCO4)CC2)C(=O)N1Cc1ccc(N2CCCC2=O)cc1 (centres undefined) | -5.2% (inactive)
CC1=NNC(=O)/C1=C\c1cn(-c2ccccc2)nc1-c1ccc(Cl)cc1 | -15.6% (inactive)
CCCCC(=O)NC(=S)Nc1ccccc1C(=O)Nc1ccccc1 | -2.5% (inactive)
CCOC(=O)C1C(=O)NC(N2CCCCC2)=NC1c1ccco1 (centres undefined) | -0.9% (inactive)
CC(=O)Nc1nc2cc3c(cc2s1)OCO3 | -1.4% (inactive)
CN1C(=O)N(C)C(=O)C2(Cc3ccccc3N3CCOCC32)C1=O (centres undefined) | 6.4% (inactive)
COc1ccc(CSc2nc3ccccc3[nH]2)cc1 | -2.5% (inactive)
CN(CC(=O)NCc1ccncc1)S(=O)(=O)c1ccc(F)cc1 | 0.2% (inactive)
O=C(Cn1ncc2c(=O)oc3ccccc3c21)NCCC1=CCCCC1 | -1.9% (inactive)
CCn1c(SCC(=O)Nc2cc(C)on2)nnc1-c1ccccc1 | -7.4% (inactive)
CCOC(=O)c1ccc(-n2c(=S)sc3c(=O)[nH]c(C)nc32)cc1 | -10.7% (inactive)
O=C(NCc1ccco1)c1ccc(CS(=O)(=O)Cc2ccc(Cl)cc2)o1 | -2.1% (inactive)
CCCCN(C(=O)NC(=O)Nc1cccc(C)c1C)S(C)(=O)=O | 9.3% (inactive)
COC(=O)c1cccc(S(=O)(=O)N(Cc2ccco2)Cc2cc3ccc(OC)cc3[nH]c2=O)c1 | -3.6% (inactive)
COc1cc2[nH]cc(C(=O)NCCc3ccccc3)c(=O)c2cc1OC | -5.6% (inactive)
CC(N)Cc1ccccc1Sc1ccc(O)cc1 (centres undefined) | -14.6% (inactive)
Cc1cc(C)cc(OCc2nnc(SCC(=O)N3CCN(c4ccccc4)CC3)o2)c1 | -2% (inactive)
C=CCn1c(N)c(C(=O)OCC(C)C)c2nc3ccccc3nc21 | -3.5% (inactive)
CC(NC(=O)COC(=O)Cc1ccsc1)C1CC2CCC1C2 (centres undefined) | 3.4% (inactive)
CC1CCN(C(=O)C2c3ccccc3C(=O)N3CCc4ccccc4C23)CC1 (centres undefined) | 3.6% (inactive)
NC1=CC(=O)c2cccc3cccc1c23 | 6.1% (inactive)
Cc1ccccc1-c1cc(-c2ccccc2O)on1 | 25.2% (inactive)
O=C1CCSc2cccc3cccc(c23)N1 | 2.8% (inactive)
CCCC(C(=O)NC1CCCC1)N(CCCN1CCOCC1)C(=O)c1snc(C(N)=O)c1N (centres undefined) | 4.4% (inactive)

Compound | inhibition
OCCNCC(O)Cn1ccc2ccccc21 (centres undefined) | -5.6% (inactive)
COC(=O)c1ccccc1NC(NC(=O)c1ccco1)C(=O)c1ccc(C)cc1 (centres undefined) | -5.6% (inactive)
CC(=O)Nc1ccc(NC2(C)C(=O)c3ccccc3C2=O)cc1 | -3.5% (inactive)
NC(=O)COC(=O)CCCc1c[nH]c2ccccc12 | 0.5% (inactive)
C=CCn1c(N2CCCC2)nc2c1c(=O)[nH]c(=O)n2C | 7.9% (inactive)
CCOc1cc(/C=C2/C(=O)N(c3ccccc3)N=C2C)ccc1OC(=O)c1ccco1 | 3.9% (inactive)
Cc1ccc(NC(=O)Cn2nnc(-c3ccccc3NC(=O)c3cccs3)n2)cc1 | 9.2% (inactive)
Cn1c(NCc2c[nH]c3ccccc23)nc2ccccc21 | 18% (inactive)
Nc1nnc(SCC(=O)NCc2ccc3c(c2)OCO3)s1 | 0.2% (inactive)
COC(=O)C1C(=O)C2=C(CC1C)NC(=O)CC2c1cccc(C)c1 (centres undefined) | -3.9% (inactive)
O=C(NC1CC1)c1ccc(S(=O)(=O)NCC2CCCCC2)cc1 | 7.4% (inactive)
Cc1c(Cl)cccc1-n1ccnc1SCC(=O)O | -7.8% (inactive)
O=C(O)c1c[nH]c2ccc(S(=O)(=O)N3CCOCC3)cc12 | 1.4% (inactive)
COc1ccc(-c2c/c(=N\c3nc(-c4ccccc4)c(C)s3)c3ccccc3o2)cc1O | 34.3% (inactive)
COc1ccccc1-n1cnc2cc(NCc3cccs3)ccc21 | -3.5% (inactive)
O=C1Nc2ccc(S(=O)(=O)N3CCOCC3)c3cccc1c23 | -7.2% (inactive)
COc1ccc(-c2cc(=O)[nH]c(NCc3ccccc3)n2)cc1 | 15.6% (inactive)
CCC(=O)Nc1cccc(NC(=O)c2cc3ccccc3o2)c1 | -3.1% (inactive)
CCOc1ccc(C2/C(=C(\O)c3c(C)[nH]c(C(=O)OC)c3C)C(=O)C(=O)N2CCN(C)C)cc1 (centres undefined) | -5.6% (inactive)
O=C(N/N=C/c1ccncc1)c1ccccc1 | 5.8% (inactive)
COc1ccc(C)cc1S(=O)(=O)Nc1cccc(SC)c1 | 3.5% (inactive)
O=C1CC(c2ccccc2)Cc2nc3ncnn3cc21 (centres undefined) | -11.3% (inactive)
Clc1ccc(-n2ncc3c(NCc4ccc5c(c4)OCO5)ncnc32)cc1 | 5.1% (inactive)
Cc1ccc(C(=O)CSc2nnc(COc3ccc(C#N)cc3)n2-c2ccccc2)cc1 | -0.7% (inactive)
O=c1c(-c2ccc(Br)cc2)coc2c(CN3CCOCC3)c(O)ccc12 | -12.4% (inactive)

same assay, conditions: TNFa-stimulated cells, VCAM1 expression imaging; cell count; at 10 µM; stronger effect = lower value

Compound | cell count [%]
CCOC(=O)Cc1cc(-c2ccc(O)cc2)nc2ccc3ccccc3c12 | 100
O=C(CS(=O)c1ccc(C(F)(F)F)cc1[N+](=O)[O-])Oc1ccccc1 (centres undefined) | 109
O=C(/C(=C/c1ccc(Cl)cc1)c1nc2ccccc2[nH]1)c1cccs1 | 83.7
COc1ccc(-c2c/c(=N\c3nc(-c4ccccc4)c(C)s3)c3ccccc3o2)cc1O | 98
